{"source": "patent US9744203B2", "about": "“Application of composition in preparing health care product or medicine for preventing and treating leukopenia caused by radiotherapy and chemotherapy” (JIANGZHONG PHARMACEUTICAL CO., LTD., priority 2012, dated 2017)", "format_in_all_cases": "in vivo", "key": {"[1]": {"system": "leucocyte reduction in mice induced by cyclophosphamide", "assay": "Bone marrow DNA content determination, mice injected with cyclophosphamide", "settings": "cyclophosphamide model; absorbance at 268 nm, day 15; positive control batyl alcohol 100 mg/kg intragastric", "protocol": "(§1) Mice were randomly divided into 6 groups with 10 animals per group, i.e., normal control group, model control group, positive control group, and groups on low, medium and high doses of Composition 1. The low-, medium- and high-dose groups were intragastrically given Composition 1 at a dose of 2.0 g crude drug/kg, 4.0 g crude drug/kg, and 12.0 g crude drug/kg, respectively; the positive control group was intragastrically given batyl alcohol (100 mg/kg) at a dose of 0.1 ml/10 g body weight; the normal control group and the model control group were intragastrically given an equivalent volume of distilled water; and the dosage regime lasted for 15 days with one dose per day. From day 9 of intragastrical administration, all mice in each group, except the normal control group, were given cyclophosphamide at a dose of 40 mg/kg each day via subcutaneous injection for 3 consecutive days. One hour after the intragastrical administration on day 15, blood and femurs were harvested for tests.\nA 7 mm section was dissected from the middle of the right femur. The whole bone marrow was flushed into a centrifuge tube with a 10 mL solution of 0.005 mol/L CaCl2, placed in a refrigerator at 4° C. for 30 min, and then centrifuged at 2500 r/min for 15 min. […] The supernatant was removed and its absorbance at 268 nm was measured."}, "[2]": {"system": "leucocyte reduction in mice induced by cyclophosphamide", "assay": "Peripheral leucocyte assay, leucocyte reduction in mice induced by cyclophosphamide", "settings": "cyclophosphamide model; positive control batyl alcohol 100 mg/kg intragastric, 15 days", "protocol": "as §1\n40 μL blood was drawn from the tail vein of the mice and transferred into a EDTA-K2 anticoagulative tube, into which 160 μL dilution liquid was added, and then assayed in an automatic blood cell analyzer.\nMice were randomly divided into 6 groups with 10 animals per group, i.e., normal control group, model control group, positive control group, and groups on low, medium and high doses of Composition 2. […]"}, "[3]": {"system": "leucocyte reduction in mice induced by X-ray radiation", "assay": "Bone marrow nucleated cell count, mice after X-ray radiation", "settings": "X-ray radiation model; one femur; positive control batyl alcohol 100 mg/kg intragastric"}, "[4]": {"system": "leucocyte reduction in mice induced by cytarabine", "assay": "Bone marrow nucleated cell count, mice injected with cytarabine", "settings": "cytarabine model; one femur, day 15; positive control batyl alcohol 100 mg/kg intragastric", "protocol": "[Worded in the source for another target; used here, by the source, with some conditions changed.] as §1\nMice were sacrificed by cervical dislocation. The left femur was removed and flushed with a 10 ml solution of 3% acetic acid to obtain the cells in the bone marrow. The number of cells in 4 large grids on a hemacytometer was counted, and the number was multiplied by 2.5×10^4 to obtain the BMC in one femur. […]"}, "[5]": {"system": "leucocyte reduction in mice induced by cytarabine", "assay": "Peripheral leucocyte assay, leucocyte reduction in mice induced by cytarabine", "settings": "cytarabine model; positive control batyl alcohol 100 mg/kg intragastric, 15 days", "protocol": "[Worded in the source for another target; used here, by the source, with some conditions changed.] as §1\n(§2) 40 μL blood was drawn from the tail vein of the mice and transferred into a EDTA-K2 anticoagulative tube, into which 160 μL dilution liquid was added, and then assayed in an automatic blood cell analyzer. […]"}, "[6]": {"system": "leucocyte reduction in mice induced by X-ray radiation", "assay": "Peripheral leucocyte assay, leucocyte reduction in mice induced by X-ray radiation", "settings": "X-ray radiation model; positive control batyl alcohol 100 mg/kg intragastric", "protocol": "[Worded in the source for another target; used here, by the source, with some conditions changed.] as §1, §2"}, "[7]": {"system": "leucocyte reduction in mice induced by cyclophosphamide", "assay": "Bone marrow nucleated cell count, mice injected with cyclophosphamide", "settings": "cyclophosphamide model; one femur, day 15; positive control batyl alcohol 100 mg/kg intragastric", "protocol": "as §1\nMice were sacrificed by cervical dislocation. The left femur was removed and flushed with a 10 ml solution of 3% acetic acid to obtain the cells in the bone marrow. The number of cells in 4 large grids on a hemacytometer was counted, and the number was multiplied by 2.5×10^4 to obtain the BMC in one femur."}}, "note": "Values joined by “and” are separate entries in the source; they are usually repeats but may differ in a detail not shown here. Equal entries are not always repeated.", "data": [{"smiles": "CCCCCCCCCCCCCCCCCCOCC(O)CO", "note": "(stereo not shown) [Positive control, batyl alcohol]", "values": [{"measurement": "Bone marrow DNA", "setting": "[1]", "result": "0.610 ± 0.138 and 0.629 ± 0.150 and 0.625 ± 0.162 and 0.730 ± 0.150 and 0.755 ± 0.128 and 0.958 ± 0.138"}, {"measurement": "WBC after modeling", "setting": "[2]", "result": "3.55 ± 1.21 ×10^9 and 4.64 ± 1.30 ×10^9 and 5.25 ± 1.30 ×10^9 and 6.13 ± 1.47 ×10^9 and 5.73 ± 1.60 ×10^9 and 6.25 ± 1.76 ×10^9"}, {"measurement": "WBC after treatment", "setting": "[2]", "result": "6.20 ± 1.82 ×10^9 and 7.34 ± 1.59 ×10^9 and 7.56 ± 1.80 ×10^9 and 8.23 ± 1.54 ×10^9 and 7.89 ± 1.60 ×10^9 and 8.96 ± 1.93 ×10^9"}, {"measurement": "Bone marrow BCM", "setting": "[3]", "result": "13.20 ± 2.02 ×10^6 and 12.43 ± 2.29 ×10^6 and 13.69 ± 2.65 ×10^6 and 14.57 ± 2.57 ×10^6 and 13.92 ± 2.57 ×10^6 and 14.78 ± 2.44 ×10^6"}, {"measurement": "Bone marrow BCM", "setting": "[4]", "result": "12.53 ± 2.24 ×10^6 and 13.95 ± 2.77 ×10^6 and 13.64 ± 2.19 ×10^6 and 14.32 ± 2.65 ×10^6 and 13.25 ± 2.31 ×10^6 and 13.58 ± 2.17 ×10^6"}, {"measurement": "WBC after modeling", "setting": "[5]", "result": "3.80 ± 1.03 ×10^9 and 4.67 ± 1.27 ×10^9 and 4.90 ± 1.43 ×10^9 and 4.16 ± 1.09 ×10^9 and 4.53 ± 1.28 ×10^9 and 6.62 ± 1.52 ×10^9"}, {"measurement": "WBC after treatment", "setting": "[5]", "result": "6.54 ± 1.93 ×10^9 and 6.85 ± 1.70 ×10^9 and 7.10 ± 1.88 ×10^9 and 7.26 ± 1.90 ×10^9 and 7.54 ± 1.62 ×10^9 and 8.52 ± 1.55 ×10^9"}, {"measurement": "WBC on day 8 after treatment", "setting": "[6]", "result": "3.66 ± 1.05 ×10^9 and 5.60 ± 1.28 ×10^9 and 5.87 ± 1.62 ×10^9 and 5.80 ± 1.44 ×10^9 and 5.32 ± 1.54 ×10^9 and 5.53 ± 1.28 ×10^9"}, {"measurement": "WBC on day 15 after treatment", "setting": "[6]", "result": "6.92 ± 1.98 ×10^9 and 7.04 ± 1.87 ×10^9 and 7.49 ± 1.52 ×10^9 and 7.88 ± 1.61 ×10^9 and 7.80 ± 1.43 ×10^9 and 8.03 ± 1.59 ×10^9"}, {"measurement": "Bone marrow BCM", "setting": "[7]", "result": "13.44 ± 2.36 ×10^6 and 11.87 ± 2.08 ×10^6 and 13.65 ± 2.42 ×10^6 and 14.73 ± 2.04 ×10^6 and 14.86 ± 2.28 ×10^6 and 15.72 ± 2.34 ×10^6"}]}]}
